Assay results published in the NIST ThermoML archive (doi:10.1021/acs.jced.9b00560).
Numbers after ± are expanded uncertainties.

Legend:
[1] = Molar enthalpy of transition or fusion; settings: Crystal; DSC
[2] = Crystal; DSC

O=C1C=CC(=O)N1c1ccccc1Br [1-(2-bromophenyl)-pyrrole-2,5-dione]
Molar enthalpy of transition or fusion [1]: 4.57 ± 0.215 kcal/mol
Triple point temperature [2]: 357.24 ± 1.2 K
